# Experiments:
# SRPK1 = molecular target: T1, SRPK1 (Homo sapiens, UniProt Q96SB4); assay: Millipore kinase panel; format: biochemical; settings: read-out: % Control
# T1 construct: purchased Millipore KinaseProfiler (kinases); Cerep (receptors and ion channels)
# NEK3 = molecular target: T2, NEK3 (Homo sapiens, UniProt P51956); assay: Millipore kinase panel; format: biochemical; settings: read-out: % Control
# T2 construct: purchased Millipore KinaseProfiler (kinases); Cerep (receptors and ion channels)
# M1 (h) = molecular target: T3, M1 (h) (Homo sapiens, UniProt P11229); assay: CEREP binding panel; settings: antagonist radioligand, read-out: % Inhibition of Control Specific Binding
# T3 construct: purchased Millipore KinaseProfiler (kinases); Cerep (receptors and ion channels)
# EPHA2 = molecular target: T4, EPHA2 (Homo sapiens, UniProt P29317); assay: Millipore kinase panel; format: biochemical; settings: read-out: % Control
# T4 construct: purchased Millipore KinaseProfiler (kinases); Cerep (receptors and ion channels)
# MELK = molecular target: T5, MELK (Homo sapiens, UniProt Q14680); assay: Millipore kinase panel; format: biochemical; settings: read-out: % Control
# T5 construct: purchased Millipore KinaseProfiler (kinases); Cerep (receptors and ion channels)
# T5 sequence (Q14680 whole entry): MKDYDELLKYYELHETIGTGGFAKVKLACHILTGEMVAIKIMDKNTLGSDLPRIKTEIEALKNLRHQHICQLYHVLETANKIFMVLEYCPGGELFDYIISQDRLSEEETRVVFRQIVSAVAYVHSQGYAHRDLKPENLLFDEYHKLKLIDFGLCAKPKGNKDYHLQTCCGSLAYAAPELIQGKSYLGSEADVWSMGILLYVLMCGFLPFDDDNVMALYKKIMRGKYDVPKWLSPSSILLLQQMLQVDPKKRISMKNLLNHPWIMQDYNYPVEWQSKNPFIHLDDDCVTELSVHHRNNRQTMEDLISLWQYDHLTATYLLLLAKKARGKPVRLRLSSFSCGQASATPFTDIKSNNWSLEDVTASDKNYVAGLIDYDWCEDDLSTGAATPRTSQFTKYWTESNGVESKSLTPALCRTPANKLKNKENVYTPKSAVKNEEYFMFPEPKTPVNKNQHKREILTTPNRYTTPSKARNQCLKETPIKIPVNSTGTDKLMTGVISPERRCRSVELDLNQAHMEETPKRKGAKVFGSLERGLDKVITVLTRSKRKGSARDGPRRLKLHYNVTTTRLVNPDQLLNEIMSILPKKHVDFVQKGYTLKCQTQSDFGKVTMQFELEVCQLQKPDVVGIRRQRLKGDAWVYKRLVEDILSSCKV
# TRKB = molecular target: T6, TRKB (Homo sapiens, UniProt Q16620); assay: Millipore kinase panel; format: biochemical; settings: read-out: % Control
# T6 construct: purchased Millipore KinaseProfiler (kinases); Cerep (receptors and ion channels)
# IRAK1 = molecular target: T7, IRAK1 (Homo sapiens, UniProt P51617); assay: Millipore kinase panel; format: biochemical; settings: read-out: % Control
# T7 construct: purchased Millipore KinaseProfiler (kinases); Cerep (receptors and ion channels)
# WNK3 = molecular target: T8, WNK3 (Homo sapiens, UniProt Q9BYP7); assay: Millipore kinase panel; format: biochemical; settings: read-out: % Control
# T8 construct: purchased Millipore KinaseProfiler (kinases); Cerep (receptors and ion channels)
# ULK3 = molecular target: T9, ULK3 (Homo sapiens, UniProt Q6PHR2); assay: Millipore kinase panel; format: biochemical; settings: read-out: % Control
# T9 construct: purchased Millipore KinaseProfiler (kinases); Cerep (receptors and ion channels)
# CK2 = molecular target: T10, CK2 (Homo sapiens, UniProt P68400); assay: Millipore kinase panel; format: biochemical; settings: read-out: % Control
# T10 construct: purchased Millipore KinaseProfiler (kinases); Cerep (receptors and ion channels)
# FGFR1 = molecular target: T11, FGFR1 (Homo sapiens, UniProt P11362); assay: Millipore kinase panel; format: biochemical; settings: read-out: % Control
# T11 construct: purchased Millipore KinaseProfiler (kinases); Cerep (receptors and ion channels)
# GRK6 = molecular target: T12, GRK6 (Homo sapiens, UniProt P43250); assay: Millipore kinase panel; format: biochemical; settings: read-out: % Control
# T12 construct: purchased Millipore KinaseProfiler (kinases); Cerep (receptors and ion channels)
# T12 sequence (P43250 whole entry): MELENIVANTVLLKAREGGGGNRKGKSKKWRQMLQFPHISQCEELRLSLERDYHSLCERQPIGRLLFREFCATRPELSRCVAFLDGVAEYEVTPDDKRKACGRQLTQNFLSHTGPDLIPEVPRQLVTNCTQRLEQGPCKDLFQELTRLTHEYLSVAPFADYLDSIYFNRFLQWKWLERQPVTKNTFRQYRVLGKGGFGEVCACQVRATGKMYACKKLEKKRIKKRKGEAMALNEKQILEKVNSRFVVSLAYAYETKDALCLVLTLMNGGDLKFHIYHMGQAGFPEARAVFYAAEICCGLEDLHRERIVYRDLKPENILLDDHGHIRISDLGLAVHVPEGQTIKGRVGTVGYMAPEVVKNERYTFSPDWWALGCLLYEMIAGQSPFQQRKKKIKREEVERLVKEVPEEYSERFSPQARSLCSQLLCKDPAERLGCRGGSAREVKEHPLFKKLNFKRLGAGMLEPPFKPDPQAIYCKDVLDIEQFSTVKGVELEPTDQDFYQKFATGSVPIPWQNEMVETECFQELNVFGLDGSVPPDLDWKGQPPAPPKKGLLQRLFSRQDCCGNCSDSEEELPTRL
# FGR = molecular target: T13, FGR (Homo sapiens, UniProt P09769); assay: Millipore kinase panel; format: biochemical; settings: read-out: % Control
# T13 construct: purchased Millipore KinaseProfiler (kinases); Cerep (receptors and ion channels)
# PASK = molecular target: T14, PASK (Homo sapiens, UniProt Q96RG2); assay: Millipore kinase panel; format: biochemical; settings: read-out: % Control
# T14 construct: purchased Millipore KinaseProfiler (kinases); Cerep (receptors and ion channels)
# T14 sequence (Q96RG2 whole entry): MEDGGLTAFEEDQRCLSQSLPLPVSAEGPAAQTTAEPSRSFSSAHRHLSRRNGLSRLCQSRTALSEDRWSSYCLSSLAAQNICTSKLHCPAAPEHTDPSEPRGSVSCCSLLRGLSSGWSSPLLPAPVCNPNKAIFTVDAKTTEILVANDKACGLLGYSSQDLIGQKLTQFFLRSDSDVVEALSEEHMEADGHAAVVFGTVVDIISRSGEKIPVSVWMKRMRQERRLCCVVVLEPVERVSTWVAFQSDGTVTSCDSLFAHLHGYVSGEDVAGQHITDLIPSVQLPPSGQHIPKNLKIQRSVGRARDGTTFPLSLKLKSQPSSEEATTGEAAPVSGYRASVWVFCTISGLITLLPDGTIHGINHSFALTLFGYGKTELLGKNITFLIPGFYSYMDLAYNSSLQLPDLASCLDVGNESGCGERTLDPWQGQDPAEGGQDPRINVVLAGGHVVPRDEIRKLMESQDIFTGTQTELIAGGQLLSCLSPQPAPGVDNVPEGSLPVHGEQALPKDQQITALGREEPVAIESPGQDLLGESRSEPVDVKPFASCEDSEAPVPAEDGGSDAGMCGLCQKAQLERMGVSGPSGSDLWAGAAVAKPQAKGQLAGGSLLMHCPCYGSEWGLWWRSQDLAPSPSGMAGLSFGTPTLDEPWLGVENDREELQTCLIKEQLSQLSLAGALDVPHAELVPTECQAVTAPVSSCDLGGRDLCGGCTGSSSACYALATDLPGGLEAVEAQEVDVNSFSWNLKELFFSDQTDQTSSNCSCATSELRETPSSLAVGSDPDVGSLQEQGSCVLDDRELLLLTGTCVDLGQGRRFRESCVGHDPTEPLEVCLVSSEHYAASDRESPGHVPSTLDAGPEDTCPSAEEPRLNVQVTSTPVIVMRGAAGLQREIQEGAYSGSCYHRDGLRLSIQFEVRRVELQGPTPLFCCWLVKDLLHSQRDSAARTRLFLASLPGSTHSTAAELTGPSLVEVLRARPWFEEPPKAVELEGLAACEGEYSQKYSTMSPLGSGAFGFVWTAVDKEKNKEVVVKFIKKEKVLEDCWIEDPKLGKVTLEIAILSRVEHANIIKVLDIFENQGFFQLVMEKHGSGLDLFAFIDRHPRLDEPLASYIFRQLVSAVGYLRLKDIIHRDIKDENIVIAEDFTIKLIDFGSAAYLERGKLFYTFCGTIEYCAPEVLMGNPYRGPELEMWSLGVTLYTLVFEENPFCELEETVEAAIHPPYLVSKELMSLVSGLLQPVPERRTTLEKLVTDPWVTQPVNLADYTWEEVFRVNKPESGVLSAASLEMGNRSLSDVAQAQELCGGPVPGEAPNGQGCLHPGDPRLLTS
# Na+ channel (site 2) = assay: CEREP binding panel; settings: 10 μM, antagonist radioligand
# [1] = molecular target: T15, norepinephrine transporter (h) (Homo sapiens, UniProt P23975); assay: CEREP binding panel; settings: antagonist radioligand, read-out: % Inhibition of Control Specific Binding
# T15 construct: purchased Millipore KinaseProfiler (kinases); Cerep (receptors and ion channels)
# SIK = molecular target: T16, SIK (Homo sapiens, UniProt P57059); assay: Millipore kinase panel; format: biochemical; settings: read-out: % Control
# T16 construct: purchased Millipore KinaseProfiler (kinases); Cerep (receptors and ion channels)
# GAL2 (h) = molecular target: T17, GAL2 (h) (Homo sapiens, UniProt O43603); assay: CEREP binding panel; settings: agonist radioligand, read-out: % Inhibition of Control Specific Binding
# T17 construct: purchased Millipore KinaseProfiler (kinases); Cerep (receptors and ion channels)
# DCAMKL2 = molecular target: T18, DCAMKL2 (Homo sapiens, UniProt Q8N568); assay: Millipore kinase panel; format: biochemical; settings: read-out: % Control
# T18 construct: purchased Millipore KinaseProfiler (kinases); Cerep (receptors and ion channels)
# ASK1 = molecular target: T19, ASK1 (Homo sapiens, UniProt Q99683); assay: Millipore kinase panel; format: biochemical; settings: read-out: % Control
# T19 construct: purchased Millipore KinaseProfiler (kinases); Cerep (receptors and ion channels)
# Y2 (h) = molecular target: T20, Y2 (h) (Homo sapiens, UniProt P49146); assay: CEREP binding panel; settings: agonist radioligand, read-out: % Inhibition of Control Specific Binding
# T20 construct: purchased Millipore KinaseProfiler (kinases); Cerep (receptors and ion channels)
# MSSK1 = molecular target: T21, MSSK1 (Homo sapiens, UniProt Q9UPE1); assay: Millipore kinase panel; format: biochemical; settings: read-out: % Control
# T21 construct: purchased Millipore KinaseProfiler (kinases); Cerep (receptors and ion channels)
# μ (MOP) (h) = molecular target: T22, μ (MOP) (h) (Homo sapiens, UniProt P35372); assay: CEREP binding panel; settings: agonist radioligand, read-out: % Inhibition of Control Specific Binding
# T22 construct: purchased Millipore KinaseProfiler (kinases); Cerep (receptors and ion channels)
# ETA (h) = molecular target: T23, ETA (h) (Homo sapiens, UniProt P25101); assay: CEREP binding panel; settings: agonist radioligand, read-out: % Inhibition of Control Specific Binding
# T23 construct: purchased Millipore KinaseProfiler (kinases); Cerep (receptors and ion channels)
# T23 sequence (P25101 21-427): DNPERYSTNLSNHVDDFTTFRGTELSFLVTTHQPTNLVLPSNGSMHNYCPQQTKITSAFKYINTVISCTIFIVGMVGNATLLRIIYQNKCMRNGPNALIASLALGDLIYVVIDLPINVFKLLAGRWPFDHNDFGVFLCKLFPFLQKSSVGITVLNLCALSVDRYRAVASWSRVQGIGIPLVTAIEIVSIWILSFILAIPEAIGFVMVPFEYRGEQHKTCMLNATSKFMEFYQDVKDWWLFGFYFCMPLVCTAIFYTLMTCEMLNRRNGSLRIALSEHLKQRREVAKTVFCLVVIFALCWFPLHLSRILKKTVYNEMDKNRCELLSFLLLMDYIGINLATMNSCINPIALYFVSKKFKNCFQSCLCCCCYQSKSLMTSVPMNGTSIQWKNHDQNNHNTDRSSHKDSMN
# EPHA1 = molecular target: T24, EPHA1 (Homo sapiens, UniProt P21709); assay: Millipore kinase panel; format: biochemical; settings: read-out: % Control
# T24 construct: purchased Millipore KinaseProfiler (kinases); Cerep (receptors and ion channels)
# SGK3 = molecular target: T25, SGK3 (Homo sapiens, UniProt Q96BR1); assay: Millipore kinase panel; format: biochemical; settings: read-out: % Control
# T25 construct: purchased Millipore KinaseProfiler (kinases); Cerep (receptors and ion channels)
# MAPKAP-K2 = molecular target: T26, MAPKAP-K2 (Homo sapiens, UniProt P49137); assay: Millipore kinase panel; format: biochemical; settings: read-out: % Control
# T26 construct: purchased Millipore KinaseProfiler (kinases); Cerep (receptors and ion channels)
# ITK = molecular target: T27, ITK (Homo sapiens, UniProt Q08881); assay: Millipore kinase panel; format: biochemical; settings: read-out: % Control
# T27 construct: purchased Millipore KinaseProfiler (kinases); Cerep (receptors and ion channels)
# RSK1 = molecular target: T28, RSK1 (Homo sapiens, UniProt Q15418); assay: Millipore kinase panel; format: biochemical; settings: read-out: % Control
# T28 construct: purchased Millipore KinaseProfiler (kinases); Cerep (receptors and ion channels)
# GCK = molecular target: T29, GCK (Homo sapiens, UniProt Q12851); assay: Millipore kinase panel; format: biochemical; settings: read-out: % Control
# T29 construct: purchased Millipore KinaseProfiler (kinases); Cerep (receptors and ion channels)
# FGFR3 = molecular target: T30, FGFR3 (Homo sapiens, UniProt P22607); assay: Millipore kinase panel; format: biochemical; settings: read-out: % Control
# T30 construct: purchased Millipore KinaseProfiler (kinases); Cerep (receptors and ion channels)
# T30 sequence (P22607 23-806): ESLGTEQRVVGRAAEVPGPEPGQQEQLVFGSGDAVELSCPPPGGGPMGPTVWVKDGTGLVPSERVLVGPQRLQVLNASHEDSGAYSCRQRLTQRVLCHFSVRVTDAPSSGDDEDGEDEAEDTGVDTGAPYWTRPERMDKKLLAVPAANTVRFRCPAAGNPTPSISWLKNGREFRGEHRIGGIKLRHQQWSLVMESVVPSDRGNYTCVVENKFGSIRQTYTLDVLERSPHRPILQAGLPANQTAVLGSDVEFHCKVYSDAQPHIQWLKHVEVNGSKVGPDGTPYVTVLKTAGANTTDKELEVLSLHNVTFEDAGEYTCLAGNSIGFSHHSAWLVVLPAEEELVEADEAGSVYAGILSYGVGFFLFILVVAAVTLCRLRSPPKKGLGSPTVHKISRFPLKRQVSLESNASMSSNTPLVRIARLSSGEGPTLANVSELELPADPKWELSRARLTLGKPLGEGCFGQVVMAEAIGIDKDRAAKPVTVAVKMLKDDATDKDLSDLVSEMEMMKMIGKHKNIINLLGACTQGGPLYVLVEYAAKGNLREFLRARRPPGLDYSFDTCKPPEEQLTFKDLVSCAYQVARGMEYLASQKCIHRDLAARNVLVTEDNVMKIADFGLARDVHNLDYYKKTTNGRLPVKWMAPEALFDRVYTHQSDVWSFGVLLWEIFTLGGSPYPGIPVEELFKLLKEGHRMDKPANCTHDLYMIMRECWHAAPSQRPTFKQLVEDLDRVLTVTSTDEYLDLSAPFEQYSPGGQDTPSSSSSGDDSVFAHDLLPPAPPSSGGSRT
# MST2 = molecular target: T31, MST2 (Homo sapiens, UniProt Q13188); assay: Millipore kinase panel; format: biochemical; settings: read-out: % Control
# T31 construct: purchased Millipore KinaseProfiler (kinases); Cerep (receptors and ion channels)
# T31 sequence (Q13188 whole entry): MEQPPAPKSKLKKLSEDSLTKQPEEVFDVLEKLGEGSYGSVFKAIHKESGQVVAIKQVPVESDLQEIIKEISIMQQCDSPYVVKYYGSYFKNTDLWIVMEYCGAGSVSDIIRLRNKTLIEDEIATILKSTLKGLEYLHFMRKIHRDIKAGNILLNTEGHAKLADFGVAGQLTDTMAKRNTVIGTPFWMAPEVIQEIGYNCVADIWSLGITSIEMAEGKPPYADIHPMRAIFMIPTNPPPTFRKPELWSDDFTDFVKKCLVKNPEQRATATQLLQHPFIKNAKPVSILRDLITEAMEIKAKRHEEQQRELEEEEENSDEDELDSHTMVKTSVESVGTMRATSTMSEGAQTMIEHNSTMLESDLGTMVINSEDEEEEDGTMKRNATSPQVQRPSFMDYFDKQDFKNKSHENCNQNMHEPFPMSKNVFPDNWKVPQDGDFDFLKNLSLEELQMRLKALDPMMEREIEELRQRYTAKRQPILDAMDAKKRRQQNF
# TRKA = molecular target: T32, TRKA (Homo sapiens, UniProt P04629); assay: Millipore kinase panel; format: biochemical; settings: read-out: % Control
# T32 construct: purchased Millipore KinaseProfiler (kinases); Cerep (receptors and ion channels)
# BTK = molecular target: T33, BTK (Homo sapiens, UniProt Q06187); assay: Millipore kinase panel; format: biochemical; settings: read-out: % Control
# T33 construct: purchased Millipore KinaseProfiler (kinases); Cerep (receptors and ion channels)
# dopamine transporter (h) = molecular target: T34, dopamine transporter (h) (Homo sapiens, UniProt Q01959); assay: CEREP binding panel; settings: antagonist radioligand, read-out: % Inhibition of Control Specific Binding
# T34 construct: purchased Millipore KinaseProfiler (kinases); Cerep (receptors and ion channels)
# BRSK1 = molecular target: T35, BRSK1 (Homo sapiens, UniProt Q8TDC3); assay: Millipore kinase panel; format: biochemical; settings: read-out: % Control
# T35 construct: purchased Millipore KinaseProfiler (kinases); Cerep (receptors and ion channels)
# T35 sequence (Q8TDC3 whole entry): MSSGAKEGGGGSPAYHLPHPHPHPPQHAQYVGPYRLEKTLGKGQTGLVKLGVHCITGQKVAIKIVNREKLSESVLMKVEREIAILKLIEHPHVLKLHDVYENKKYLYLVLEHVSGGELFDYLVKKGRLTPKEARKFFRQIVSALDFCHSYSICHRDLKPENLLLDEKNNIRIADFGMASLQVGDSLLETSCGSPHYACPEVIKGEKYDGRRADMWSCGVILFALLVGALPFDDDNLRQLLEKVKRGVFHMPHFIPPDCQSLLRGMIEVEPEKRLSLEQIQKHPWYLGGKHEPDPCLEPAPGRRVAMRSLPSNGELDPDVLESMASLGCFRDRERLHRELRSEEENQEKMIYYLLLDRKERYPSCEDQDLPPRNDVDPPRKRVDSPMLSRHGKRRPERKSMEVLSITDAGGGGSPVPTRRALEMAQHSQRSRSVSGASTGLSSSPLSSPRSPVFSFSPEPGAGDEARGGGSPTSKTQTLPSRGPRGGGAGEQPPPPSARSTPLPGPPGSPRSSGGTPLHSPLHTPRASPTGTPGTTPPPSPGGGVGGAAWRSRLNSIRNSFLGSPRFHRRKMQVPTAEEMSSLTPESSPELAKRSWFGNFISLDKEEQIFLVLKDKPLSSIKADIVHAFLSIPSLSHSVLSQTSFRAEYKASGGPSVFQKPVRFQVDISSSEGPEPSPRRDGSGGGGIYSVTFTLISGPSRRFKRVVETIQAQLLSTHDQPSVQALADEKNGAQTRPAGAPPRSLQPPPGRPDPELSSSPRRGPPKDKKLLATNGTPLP
# PLK3 = molecular target: T36, PLK3 (Homo sapiens, UniProt Q9H4B4); assay: Millipore kinase panel; format: biochemical; settings: read-out: % Control
# T36 construct: purchased Millipore KinaseProfiler (kinases); Cerep (receptors and ion channels)
# CAMKI = molecular target: T37, CAMKI (Homo sapiens, UniProt Q14012); assay: Millipore kinase panel; format: biochemical; settings: read-out: % Control
# T37 construct: purchased Millipore KinaseProfiler (kinases); Cerep (receptors and ion channels)
# NK2 (h) = molecular target: T38, NK2 (h) (Homo sapiens, UniProt P21452); assay: CEREP binding panel; settings: agonist radioligand, read-out: % Inhibition of Control Specific Binding
# T38 construct: purchased Millipore KinaseProfiler (kinases); Cerep (receptors and ion channels)
# EPHB4 = molecular target: T39, EPHB4 (Homo sapiens, UniProt P54760); assay: Millipore kinase panel; format: biochemical; settings: read-out: % Control
# T39 construct: purchased Millipore KinaseProfiler (kinases); Cerep (receptors and ion channels)
# HIPK2 = molecular target: T40, HIPK2 (Homo sapiens, UniProt Q9H2X6); assay: Millipore kinase panel; format: biochemical; settings: read-out: % Control
# T40 construct: purchased Millipore KinaseProfiler (kinases); Cerep (receptors and ion channels)
# β1 (h) = molecular target: T41, β1 (h) (Homo sapiens, UniProt P08588); assay: CEREP binding panel; settings: agonist radioligand, read-out: % Inhibition of Control Specific Binding
# T41 construct: purchased Millipore KinaseProfiler (kinases); Cerep (receptors and ion channels)
# PIM-2 = molecular target: T42, PIM-2 (Homo sapiens, UniProt Q9P1W9); assay: Millipore kinase panel; format: biochemical; settings: read-out: % Control
# T42 construct: purchased Millipore KinaseProfiler (kinases); Cerep (receptors and ion channels)
# PKCALPHA = molecular target: T43, PKCALPHA (Homo sapiens, UniProt P17252); assay: Millipore kinase panel; format: biochemical; settings: read-out: % Control
# T43 construct: purchased Millipore KinaseProfiler (kinases); Cerep (receptors and ion channels)
smiles,measurement,setting,value
"O=C1NCCC12CCN(c1c(Cl)cncc1-c1ccc(N3CCOCC3)cc1)CC2 [Compound 44, 8-(3-Chloro-5-(4-morpholin-4-ylphenyl)pyridin-4-yl)-2,8-diazaspiro[4.5]decan-1-one]",remaining activity at 1 µM,SRPK1,-20%
same,remaining activity at 1 µM,NEK3,18%
same,inhibition at 10 µM,M1 (h),12%
same,remaining activity at 1 µM,EPHA2,10%
same,remaining activity at 1 µM,MELK,-19%
same,remaining activity at 1 µM,TRKB,2%
same,remaining activity at 1 µM,IRAK1,4%
same,remaining activity at 1 µM,WNK3,0%
same,remaining activity at 1 µM,ULK3,-1%
same,remaining activity at 1 µM,CK2,12%
same,remaining activity at 1 µM,FGFR1,13%
same,remaining activity at 1 µM,GRK6,-1%
same,remaining activity at 1 µM,FGR,16%
same,remaining activity at 1 µM,PASK,1%
same,% Inhibition of Control Specific Binding,Na+ channel (site 2),15%
same,inhibition at 10 µM,[1],-15%
same,remaining activity at 1 µM,SIK,-3%
same,inhibition at 10 µM,GAL2 (h),-22%
same,remaining activity at 1 µM,DCAMKL2,0%
same,remaining activity at 1 µM,ASK1,-1%
same,inhibition at 10 µM,Y2 (h),-8%
same,remaining activity at 1 µM,MSSK1,-10%
same,inhibition at 10 µM,μ (MOP) (h),9%
same,inhibition at 10 µM,ETA (h),-3%
same,remaining activity at 1 µM,EPHA1,-2%
same,remaining activity at 1 µM,SGK3,5%
same,remaining activity at 1 µM,MAPKAP-K2,0%
same,remaining activity at 1 µM,ITK,16%
same,remaining activity at 1 µM,RSK1,2%
same,remaining activity at 1 µM,GCK,-9%
same,remaining activity at 1 µM,FGFR3,10%
same,remaining activity at 1 µM,MST2,1%
same,remaining activity at 1 µM,TRKA,17%
same,remaining activity at 1 µM,BTK,-2%
same,inhibition at 10 µM,dopamine transporter (h),-13%
same,remaining activity at 1 µM,BRSK1,5%
same,remaining activity at 1 µM,PLK3,-17%
same,remaining activity at 1 µM,CAMKI,-4%
same,inhibition at 10 µM,NK2 (h),11%
same,remaining activity at 1 µM,EPHB4,4%
same,remaining activity at 1 µM,HIPK2,2%
same,inhibition at 10 µM,β1 (h),9%
same,remaining activity at 1 µM,PIM-2,7%
same,remaining activity at 1 µM,PKCALPHA,-5%
